Assays:
Assay type in all cases: cell-based
[1] = system: SDMA (PRMT5 activity) in HAP1 MTAP-deleted cell line; assay: SDMA in-cell western assay, HAP1 MTAP-deleted; details: for IC50 / IC90: Homo sapiens, SDMA in-cell western, HAP1 MTAP-deleted cells, 24 hours compound incubation; for Hap1 MTAP intact/deleted ratio: ratio of SDMA IC50 in HAP1 MTAP-intact to HAP1 MTAP-deleted cell line
[2] = system: SDMA (PRMT5 activity) in HAP1 MTAP-intact cell line; assay: SDMA in-cell western assay, HAP1 MTAP-intact; details: SDMA in-cell western, HAP1 MTAP-intact cells, 24 hours compound incubation
[3] = system: HAP1 MTAP-deleted cell line; assay: Viability assay (CellTiter-Glo), HAP1 MTAP-deleted; details: Homo sapiens, 168 h, HAP1 MTAP-deleted cells, 7 days
How it was run: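 HAP1 MTAP-deleted and MTAP-intact cells seeded, then dosed next day (n=3, 0.2% DMSO) and grown 7 days. Viability by CellTiter-Glo luminescence, expressed as % of DMSO control per cell line.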

Compound	IC50 [1]	IC90 [1]	Hap1 MTAP intact/deleted ratio [1]	IC50 ([2]; Homo sapiens, HAP1, 24 h)	IC50 [3]	IC50 [2]
COc1ncc(NC(=O)C(=O)N2C[C@@H](C)CC[C@@H]2c2ccc3sc(CC(C)(C)N(C)C)nc3c2)cc1C(N)=O [Compound 120, 5-(2-((2R,5S)-2-(2-(2-(dimethylamino)-2-methylpropyl)benzo[d]thiazol-5-yl)-5-methylpiperidin-1-yl)-2-oxoacetamido)-2-methoxynicotinamide]	< 5 nM	< 75 nM	A (“A” indicates an IC50 ratio greater than or equal to 30 fold)	> 50 nM	< 100 nM	
CCc1cc(NC(=O)C(=O)N2C[C@@H](C)CC[C@@H]2c2ccc3sc(C4=CCN(C)CC4)nc3c2)cnc1N [Compound 28, N-(6-amino-5-ethylpyridin-3-yl)-2-((2R,5S)-5-methyl-2-(2-(1-methyl-1,2,3,6-tetrahydropyridin-4-yl)benzo[d]thiazol-5-yl)piperidin-1-yl)-2-oxoacetamide]	< 5 nM	< 75 nM	A (“A” indicates an IC50 ratio greater than or equal to 30 fold)	5 to 50 nM	< 100 nM	
COc1ncc(NC(=O)C(=O)N2C[C@@H](C)CC[C@@H]2c2cccc(OC[C@H](C)N(C)C)c2)cc1C(N)=O [Compound 37, 5-(2-((2R,5S)-2-(3-((S)-2-(dimethylamino)propoxy)phenyl)-5-methylpiperidin-1-yl)-2-oxoacetamido)-2-methoxynicotinamide]	5 to 50 nM	75 to 125 nM	A (“A” indicates an IC50 ratio greater than or equal to 30 fold)	> 50 nM	< 100 nM	
COc1ncc(NC(=O)C(=O)N2C[C@@H](C)CC[C@@H]2c2ccc3sc(C4=CCN(C)CC4)nc3c2)cc1C(N)=O [Compound 83, 2-methoxy-5-(2-((2R,5S)-5-methyl-2-(2-(1-methyl-1,2,3,6-tetrahydropyridin-4-yl)benzo[d]thiazol-5-yl)piperidin-1-yl)-2-oxoacetamido)nicotinamide]	< 5 nM	< 75 nM	A (“A” indicates an IC50 ratio greater than or equal to 30 fold)	> 50 nM	< 100 nM	
COc1ncc(NC(=O)C(=O)N2C[C@@H](C)CC[C@@H]2c2ccc3sc([C@H]4CCN(C)C[C@@H]4OC)nc3c2)cc1C(N)=O (single isomer, unassigned) [Compound 35]	< 5 nM	< 75 nM	A (“A” indicates an IC50 ratio greater than or equal to 30 fold)	> 50 nM	< 100 nM	
COc1ncc(NC(=O)C(=O)N2C[C@@H](C)CC[C@@H]2c2ccc3sc([C@H]4CN(C)CC4(C)C)nc3c2)cc1C(N)=O (single isomer, unassigned) [Compound 36]	< 5 nM	< 75 nM	A (“A” indicates an IC50 ratio greater than or equal to 30 fold)	> 50 nM	< 100 nM	
CCc1cc(NC(=O)C(=O)N2C[C@@H](C)CC[C@@H]2c2ccc3sc([C@@H](C)CN4CCCC4)nc3c2)cnc1N [Compound 47]	< 5 nM	< 75 nM	A (“A” indicates an IC50 ratio greater than or equal to 30 fold)	> 50 nM	< 100 nM	
CCc1cc(NC(=O)C(=O)N2C[C@@H](C)CC[C@@H]2c2ccc3cn(C4CN(C)CC(C)(C)C4)nc3c2)cnc1N (single isomer, unassigned) [Compound 78]	< 5 nM	< 75 nM	B (“B” indicates an IC50 ratio greater than or equal to 15 fold but lower than 30 fold)		< 100 nM	> 50 nM
COc1ncc(NC(=O)C(=O)N2C[C@@H](C)CC[C@@H]2c2ccc3sc(C45CCC(CC4)N(C)C5)nc3c2)cc1C(N)=O [Compound 99, 2-methoxy-5-(2-((2R,5S)-5-methyl-2-(2-(2-methyl-2-azabicyclo[2.2.2]octan-4-yl)benzo[d]thiazol-5-yl)piperidin-1-yl)-2-oxoacetamido)nicotinamide]	< 5 nM	< 75 nM	A (“A” indicates an IC50 ratio greater than or equal to 30 fold)	> 50 nM	< 100 nM	
CCc1cc(NC(=O)C(=O)N2C[C@@H](C)CC[C@@H]2c2ccc3cc(C#N)cnc3c2)cnc1N [Compound 54]	5 to 50 nM	> 125 nM	A (“A” indicates an IC50 ratio greater than or equal to 30 fold)	> 50 nM	100 to 1000 nM	
CCc1cc(NC(=O)C(=O)N2C[C@@H](C)CC[C@@H]2c2cccc(N3CCC(N(C)C)CC3)c2)cnc1N [Compound 9, N-(6-amino-5-ethylpyridin-3-yl)-2-((2R,5S)-2-(3-(4-(dimethylamino)piperidin-1-yl)phenyl)-5-methylpiperidin-1-yl)-2-oxoacetamide]	< 5 nM	< 75 nM	A (“A” indicates an IC50 ratio greater than or equal to 30 fold)	> 50 nM	< 100 nM	

Source: patent publication US20250171432A1, “COMPOUNDS AND METHODS OF USE” (Tango Therapeutics, Inc., priority 2022, published 2025)
